Reference: article PMC6255783, “A biophysical study on the mechanism of interactions of DOX or PTX with α-lactalbumin as a delivery carrier” (Scientific Reports, 2018)

Target: T1, α-Lac (α-lactalbumin) (Bos taurus, UniProt P00711)
T1 construct: gene LALBA; native mature protein from bovine milk, type III, calcium depleted (apo form, EDTA buffer); signal peptide absent
T1 sequence (P00711 20-142): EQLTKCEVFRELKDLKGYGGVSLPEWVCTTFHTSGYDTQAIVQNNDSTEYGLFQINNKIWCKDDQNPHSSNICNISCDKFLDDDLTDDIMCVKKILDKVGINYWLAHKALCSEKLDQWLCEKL
Assay: isothermal titration calorimetry
Assay type: binding
Details: 20 mM Tris pH 7, 25 °C, 3.5 mM EDTA (apo form), unreliable (authors urge care: no clear pre- or post-transition, heat does not level off)
Text: isothermal titration calorimetry on α-Lac (α-lactalbumin)

Row | SMILES | K (M^-1) (n = 0.9) | K (M^-1) (up to 3% ethanol, n = 1.8)
1 | COc1cccc2c1C(=O)c1c(O)c3c(c(O)c1C2=O)C[C@@](O)(C(=O)CO)C[C@@H]3O[C@H]1C[C@H](N)[C@H](O)[C@H](C)O1 [DOX, doxorubicin] | (6.7 ± 1.61) × 10^3 M^-1 | 
2 | CC(=O)O[C@H]1C(=O)[C@@]2(C)[C@H]([C@H](OC(=O)c3ccccc3)[C@]3(O)C[C@H](OC(=O)[C@H](O)[C@@H](NC(=O)c4ccccc4)c4ccccc4)C(C)=C1C3(C)C)[C@]1(OC(C)=O)CO[C@@H]1C[C@@H]2O [PTX, paclitaxel] |  | (14 ± 4.82) × 10^3 M^-1
